Where no end group is shown, it is not given here.
Tests used:
S. aureus = assay type: cell-based, Staphylococcus aureus; conditions: micro broth dilution, 37 °C, 24 h, MTT indicator, triplicates
S. typhi^N = assay type: cell-based, Salmonella typhi; conditions: micro broth dilution, 37 °C, 24 h, MTT indicator, triplicates
[1] = test system: E. coli^N (standard strain); assay type: cell-based, Escherichia coli; conditions: micro broth dilution, 37 °C, 24 h, MTT indicator, triplicates
S. typhi^R [2] = assay type: cell-based, Salmonella typhi; conditions: micro broth dilution, 37 °C, 24 h, MTT indicator, triplicates
MRSA [3] = assay type: cell-based, methicillin-resistant Staphylococcus aureus; conditions: micro broth dilution, 37 °C, 24 h, MTT indicator, triplicates
E. coli^R = assay type: cell-based, Escherichia coli; conditions: for FIC index of Chloramphenicol in combination with the peptide, E. coli^R / FIC index of Erythromycin in combination with the peptide, E. coli^R / FIC index of Cefotaxime in combination with the peptide, E. coli^R: FIC(A) = MIC of antibiotic in the presence of peptide / MIC of antibiotic alone; for MIC of antibiotic alone, E. coli: resistant strain, MTT indicator
MRSA [4] = assay type: cell-based, methicillin-resistant Staphylococcus aureus; conditions: for FIC index of Cefotaxime in combination with the peptide, MRSA / FIC index of Chloramphenicol in combination with the peptide, MRSA / FIC index of Erythromycin in combination with the peptide, MRSA: FIC(A) = MIC of antibiotic in the presence of peptide / MIC of antibiotic alone; for MIC of antibiotic alone, MRSA: MTT indicator
K. pneumoniae = assay type: cell-based, Klebsiella pneumoniae; conditions: micro broth dilution, 37 °C, 24 h, MTT indicator, triplicates
S. pyogenes = assay type: cell-based, Streptococcus pyogenes; conditions: micro broth dilution, 37 °C, 24 h, MTT indicator, triplicates
S. typhi^R [5] = assay type: cell-based, Salmonella typhi; conditions: for FIC index of Cefotaxime in combination with the peptide, S. typhi^R / FIC index of Chloramphenicol in combination with the peptide, S. typhi^R / FIC index of Erythromycin in combination with the peptide, S. typhi^R: FIC(A) = MIC of antibiotic in the presence of peptide / MIC of antibiotic alone; for MIC of antibiotic alone, S. typhi: resistant strain, MTT indicator
[6] = test system: E. coli^R (resistant strain); assay type: cell-based, Escherichia coli; conditions: micro broth dilution, 37 °C, 24 h, MTT indicator, triplicates
human erythrocytes = test: Hemolytic activity; assay type: cell-based; conditions: 1% human erythrocytes in PBS pH 7.40, 37 °C, 1 h, absorbance 570 nm
[7] = test system: microorganisms tested (standard and resistant bacterial strains); test: MIC range over the strains tested and therapeutic index; assay type: cell-based; conditions: range over the strains tested, micro broth dilution
[8] = checkerboard, FIC(A)+FIC(P), 37 °C, 24 h

| Molecule | Minimum inhibitory concentration; MIC, S. aureus (S. aureus) [µM] | Minimum inhibitory concentration; MIC, S. typhi^N (S. typhi^N) [µM] | Minimum inhibitory concentration; MIC, E. coli^N [1] [µM] | Minimum inhibitory concentration; MIC, S. typhi^R (S. typhi^R [2]) [µM] | Minimum inhibitory concentration; MIC, MRSA (MRSA [3]) [µM] | FIC index of Chloramphenicol in combination with the peptide, E. coli^R (E. coli^R) | FIC index of Cefotaxime in combination with the peptide, MRSA (MRSA [4]) | FIC index of Chloramphenicol in combination with the peptide, MRSA (MRSA [4]) | FIC index of Erythromycin in combination with the peptide, MRSA (MRSA [4]) | Minimum inhibitory concentration; MIC, K. pneumoniae (K. pneumoniae) [µM] | Minimum inhibitory concentration; MIC, S. pyogenes (S. pyogenes) [µM] | FIC index of Cefotaxime in combination with the peptide, S. typhi^R (S. typhi^R [5]) | FIC index of Chloramphenicol in combination with the peptide, S. typhi^R (S. typhi^R [5]) | Minimum inhibitory concentration; MIC, E. coli^R [6] [µM] | MHC (minimum concentration of peptide that causes hemolysis) (human erythrocytes) [mM] | FIC index of Erythromycin in combination with the peptide, E. coli^R (E. coli^R) | FIC index of Erythromycin in combination with the peptide, S. typhi^R (S. typhi^R [5]) | MIC of antibiotic alone, MRSA (MRSA [4]; 37 °C, 24 h) [µM] | MIC of antibiotic alone, S. typhi (S. typhi^R [5]; 37 °C, 24 h) [µM] | FIC index of Cefotaxime in combination with the peptide, E. coli^R (E. coli^R) | further results |
| --- | --- | --- | --- | --- | --- | --- | --- | --- | --- | --- | --- | --- | --- | --- | --- | --- | --- | --- | --- | --- | --- |
| FLIKSLAGAKGIL [BRGP-002] | >1879 | >1879 | >1879 | >1879 | >1879 | 0.50 | 0.50 | 1.00 | 1.00 | >1879 | >1879 | 1.00 | 1.00 | >1879 | 1.879 | – | – | – | – | – | – |
| AILFLSLGAIKKG [BRGP-001] | 117 | >1879 | >1879 | >1879 | 15 | 0.25 | 0.50 | 0.063 | 0.54 | 117 | >1879 | 0.50 | 0.50 | >1879 | 1.127 | 0.12 | 0.50 | – | – | – | FIC index of peptide in combination with Chloramphenicol, MRSA (MRSA [4]; [8]): 2.063; FIC index of peptide in combination with Erythromycin, MRSA (MRSA [4]; [8]): 0.81; MIC range [7]: 15 to 117 µM |
| CO/N=C(\C(=O)N[C@@H]1C(=O)N2C(C(=O)O)=C(COC(C)=O)CS[C@H]12)c1csc(N)n1 [Cefotaxime, reference compound] | – | – | – | – | – | – | – | – | – | – | – | – | – | – | – | – | – | 34.3 | 68.6 | – | – |
| KGIKGALSILFAL [BRGP-004] | >1879 | >1879 | >1879 | >1879 | >1879 | 0.50 | 0.50 | 0.50 | 0.54 | >1879 | >1879 | 1.00 | 1.00 | >1879 | 1.503 | 0.12 | 0.50 | – | – | 0.50 | – |
| KGGAIKSLFLILA [BRGP-003] | >1879 | >1879 | >1879 | >1879 | >1879 | 1.00 | 0.50 | 0.50 | 0.54 | >1879 | >1879 | 1.00 | 1.00 | >1879 | 1.127 | 1.00 | – | – | – | 0.50 | – |
| PQQYPEMNTRRNW [BRGP-007] | >1454 | >1454 | >1454 | >1454 | >1454 | – | – | – | – | >1454 | >1454 | – | – | >1454 | 1.454 | – | – | – | – | – | – |
| FALSILGALGIKK [BRGP-006] | 939 | >1879 | 470 | 235 | 235 | 0.25 | 0.50 | 0.25 | 1.00 | 1879 | 470 | 0.50 | 0.50 | 470 | 1.503 | 0.12 | 1.00 | – | – | 0.50 | FIC index of peptide in combination with Cefotaxime, E. coli^R (E. coli^R; [8]): 2.50; FIC index of peptide in combination with Chloramphenicol, E. coli^R (E. coli^R; [8]): 0.75; FIC index of peptide in combination with Erythromycin, E. coli^R (E. coli^R; [8]): 0.25; FIC index of peptide in combination with Cefotaxime, MRSA (MRSA [4]; [8]): 0.75; FIC index of peptide in combination with Chloramphenicol, MRSA (MRSA [4]; [8]): 0.75; FIC index of peptide in combination with Erythromycin, MRSA (MRSA [4]; [8]): 1.030; MIC range [7]: 235 to 1879 µM; FIC index of peptide in combination with Cefotaxime, S. typhi^R (S. typhi^R [5]; [8]): 1.00; FIC index of peptide in combination with Chloramphenicol, S. typhi^R (S. typhi^R [5]; [8]): 0.53; FIC index of peptide in combination with Erythromycin, S. typhi^R (S. typhi^R [5]; [8]): 1.50 |
| O=C(N[C@H](CO)[C@H](O)c1ccc([N+](=O)[O-])cc1)C(Cl)Cl [Chloramphenicol, reference compound] | – | – | – | – | – | – | – | – | – | – | – | – | – | – | – | – | – | 193.4 | 6 | – | MIC of antibiotic alone, E. coli (E. coli^R; 37 °C, 24 h): 386.8 µM |
| CC[C@H]1OC(=O)[C@H](C)[C@@H](O[C@H]2C[C@@](C)(OC)[C@@H](O)[C@H](C)O2)[C@H](C)[C@@H](O[C@@H]2O[C@H](C)C[C@H](N(C)C)[C@H]2O)[C@](C)(O)C[C@@H](C)C(=O)[C@H](C)[C@@H](O)[C@]1(C)O [Erythromycin, reference compound] | – | – | – | – | – | – | – | – | – | – | – | – | – | – | – | – | – | 1.3 | 21.3 | – | MIC of antibiotic alone, E. coli (E. coli^R; 37 °C, 24 h): 85.2 µM |

Source: article PMC10558864 (Heliyon, 2023)
